Assay results taken from patent publication US20240287080A1 (IDEAYA Biosciences Inc., priority 2021, published 2024).

The compounds below were run against T1, Pol theta (1-899) (Homo sapiens, UniProt O75417) (assay: Pol theta ATPase activity, NADH oxidation-coupled enzymatic assay (ATPase NADH coupling: Standard Screening: hPolQ)). Conditions: Pol theta (1-899) 5 nM, NADH oxidation-coupled ATPase assay; compounds of Table 3.
T1 construct: Pol theta (1-899) (5 nM) in assay buffer
Type: biochemical
Outline: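 Rates of ATP hydrolysis taken from 60-min A340 traces of NADH oxidation via PK/LDH coupling, then fit four-parameter for IC50, Hill slope and max inhibition. Enzyme (5 nM, 1-899) and compounds preincubated 15 min before ATP 100 μM and 50-thymine ssDNA 300 nM (stock, equal volume added).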

T1 sequence (O75417 1-899): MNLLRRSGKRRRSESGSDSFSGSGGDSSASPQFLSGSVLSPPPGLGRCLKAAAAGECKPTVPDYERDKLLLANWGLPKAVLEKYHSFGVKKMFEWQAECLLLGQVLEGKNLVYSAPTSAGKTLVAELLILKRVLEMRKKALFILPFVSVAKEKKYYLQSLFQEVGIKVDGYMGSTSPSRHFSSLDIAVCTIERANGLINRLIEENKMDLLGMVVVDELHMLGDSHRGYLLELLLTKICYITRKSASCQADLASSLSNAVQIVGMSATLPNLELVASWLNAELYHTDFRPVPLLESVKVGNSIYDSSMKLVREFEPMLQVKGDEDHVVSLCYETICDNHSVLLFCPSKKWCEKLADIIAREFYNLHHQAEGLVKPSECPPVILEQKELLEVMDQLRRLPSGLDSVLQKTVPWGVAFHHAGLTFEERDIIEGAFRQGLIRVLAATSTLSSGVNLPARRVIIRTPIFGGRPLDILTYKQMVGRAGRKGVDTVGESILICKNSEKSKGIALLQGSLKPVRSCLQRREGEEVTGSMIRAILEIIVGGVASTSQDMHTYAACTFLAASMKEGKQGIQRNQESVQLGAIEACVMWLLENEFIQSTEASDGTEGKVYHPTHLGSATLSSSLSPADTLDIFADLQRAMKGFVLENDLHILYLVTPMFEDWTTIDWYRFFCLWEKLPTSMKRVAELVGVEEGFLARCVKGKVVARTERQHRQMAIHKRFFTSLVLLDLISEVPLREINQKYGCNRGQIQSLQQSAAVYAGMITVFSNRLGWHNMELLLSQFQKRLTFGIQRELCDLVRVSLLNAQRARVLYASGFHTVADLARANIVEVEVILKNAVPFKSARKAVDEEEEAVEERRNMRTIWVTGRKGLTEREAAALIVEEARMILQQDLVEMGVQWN

SMILES | IC50
COc1nnc(NC(=O)c2cnc(C)cc2-c2cc(Br)c([S@@+](C)[O-])cc2OC)s1 (single isomer, unassigned) [Example 319] | ≤ 200 nM
COc1cnc(C)cc1-c1cc(C)ncc1C(=O)Nc1nnc(OC2COCC2NCC2CC2)s1 (centres unmarked) [Example 249, N-(5-((4-((cyclopropylmethyl)amino)tetrahydrofuran-3-yl)oxy)-1,3,4-thiadiazol-2-yl)-5′-methoxy-2′,6-dimethyl-[4,4′-bipyridine]-3-carboxamide] | ≤ 200 nM
COc1ccc(-c2cc(C)ncc2C(=O)Nc2nnc(OC)s2)cc1 [Example 377, N-(5-methoxy-1,3,4-thiadiazol-2-yl)-4-(4-methoxyphenyl)-6-methylpyridine-3-carboxamide] | 1000 to 10000 nM
COc1cnc(Cl)cc1-c1cc(C)ncc1C(=O)Nc1nnc(OC2CCC23CCOC3)s1 (centres unmarked) [Example 296, N-(5-((6-oxaspiro[3.4]octan-1-yl)oxy)-1,3,4-thiadiazol-2-yl)-2′-chloro-5′-methoxy-6-methyl-[4,4′-bipyridine]-3-carboxamide] | ≤ 200 nM
CNC(=O)c1cccc(-c2cc(C)ncc2C(=O)Nc2nnc(OC)s2)c1 [Example 343, N-(5-methoxy-1,3,4-thiadiazol-2-yl)-6-methyl-4-[3-(methylcarbamoyl)phenyl]pyridine-3-carboxamide] | 1000 to 10000 nM
COc1nnc(NC(=O)c2cnc(C)cc2-c2cc(Cl)c([S@+]([O-])C3CC3)cc2OC)s1 (single isomer, unassigned) [Example 321] | 1000 to 10000 nM
COc1nnc(NC(=O)c2cnc(C)cc2-c2ccc3c(c2)CCN(C)C3)s1 [Example 432, N-(5-methoxy-1,3,4-thiadiazol-2-yl)-6-methyl-4-(2-methyl-1,2,3,4-tetrahydroisoquinolin-6-yl)nicotinamide] | 1000 to 10000 nM
COc1cnc(Cl)cc1-c1cc(C)ncc1C(=O)Nc1nnc(OC2CCCN(C3COC3)C2)s1 (centres unmarked) [Example 250, 2′-chloro-5′-methoxy-6-methyl-N-(5-((1-(oxetan-3-yl)piperidin-3-yl)oxy)-1,3,4-thiadiazol-2-yl)-[4,4′-bipyridine]-3-carboxamide] | ≤ 200 nM
COc1nnc(NC(=O)c2cnc(C)cc2-c2ccc(F)c(OC)c2)s1 [Example 330, 4-(4-fluoro-3-methoxyphenyl)-N-(5-methoxy-1,3,4-thiadiazol-2-yl)-6-methylpyridine-3-carboxamide] | 1000 to 10000 nM

Same assay, conditions: Table 4; Pol theta (1-899) 5 nM, ATP, dT50 ssDNA

SMILES | IC50
COc1nnc(NC(=O)c2cnc(C)cc2-c2cc(C3CC3)ncc2OC)s1 [Example 51, 2′-cyclopropyl-5′-methoxy-N-(5-methoxy-1,3,4-thiadiazol-2-yl)-6-methyl-(4,4′-bipyridine)-3-carboxamide] | ≤ 200 nM
COc1cnc(Cl)cc1-c1cc(C)ncc1C(=O)Nc1nnc(O[C@H]2C[C@H](O)C2)s1 [Example 16, 2′-chloro-N-(5-((1r,3r)-3-hydroxycyclobutoxy)-1,3,4-thiadiazol-2-yl)-5′-methoxy-6-methyl-(4,4′-bipyridine)-3-carboxamide] | ≤ 200 nM
COc1cnc(Cl)cc1-c1cc(C)ncc1C(=O)Nc1nnc(O[C@H]2CCOC2)s1 [Example 22, (S)-2′-chloro-5′-methoxy-6-methyl-N-(5-((tetrahydrofuran-3-yl)oxy)-1,3,4-thiadiazol-2-yl)-(4,4′-bipyridine)-3-carboxamide] | ≤ 200 nM
COc1nnc(NC(=O)c2cnc(CO)cc2-c2cc(Cl)ncc2OC)s1 [Example 64, 2′-chloro-6-(hydroxymethyl)-5′-methoxy-N-(5-methoxy-1,3,4-thiadiazol-2-yl)-(4,4′-bipyridine)-3-carboxamide] | ≤ 200 nM
COc1nnc(NC(=O)c2cnc(C)cc2-c2c(Cl)cccc2OC(F)F)s1 [Example 55, 4-(2-chloro-6-(difluoromethoxy)phenyl)-N-(5-methoxy-1,3,4-thiadiazol-2-yl)-6-methylnicotinamide] | 200 to 500 nM
COc1nnc(NC(=O)c2cnc(C)cc2-c2cc(Cl)ccc2CO)s1 [Example 66, 4-(5-chloro-2-(hydroxymethyl)phenyl)-N-(5-methoxy-1,3,4-thiadiazol-2-yl)-6-methylnicotinamide] | 200 to 500 nM
COc1nnc(NC(=O)c2cnc(C)cc2-c2cc(C)nnc2OC)s1 [Example 43, N-(5-methoxy-1,3,4-thiadiazol-2-yl)-4-(3-methoxy-6-methylpyridazin-4-yl)-6-methylnicotinamide] | 200 to 500 nM
COc1cnc(Cl)cc1-c1cc(C)ncc1C(=O)Nc1nnc(O[C@H]2CC[C@@H](O)C2)s1 (single isomer, unassigned) [Example 58] | ≤ 200 nM

Same assay, conditions: Table 5; Pol theta (1-899) 5 nM, ATP, dT50 ssDNA

SMILES | IC50
COc1nnc(NC(=O)c2cnc(C)cc2-c2ccnc3ncnn23)s1 [Example 91, 4-((1,2,4)triazolo(1,5-a)pyrimidin-7-yl)-N-(5-methoxy-1,3,4-thiadiazol-2-yl)-6-methylnicotinamide] | 1000 to 10000 nM
COc1cnc(C)c(F)c1-c1cc(C)ncc1C(=O)Nc1nnc(O[C@H]2CC[C@@](C)(O)CC2)s1 (single isomer, unassigned) [Example 221, 3′-fluoro-N-(5-(((1s,4s)-4-hydroxy-4-methylcyclohexyl)oxy)-1,3,4-thiadiazol-2-yl)-5′-methoxy-2′,6-dimethyl-(4,4′-bipyridine)-3-carboxamide] | ≤ 200 nM
COc1cnc(Cl)cc1-c1cc(C)ncc1C(=O)Nc1nnc(O[C@H]2CC[C@]3(CCO3)CC2)s1 (single isomer, unassigned) [Example 185, N-(5-(((4s, 7s)-1-oxaspiro(3.5)nonan-7-yl)oxy)-1,3,4-thiadiazol-2-yl)-2′-chloro-5′-methoxy-6-methyl-(4,4′-bipyridine)-3-carboxamide] | ≤ 200 nM
Cc1cc(-c2cc(Cl)ncc2OC(F)F)c(C(=O)Nc2nnc(O[C@H]3CC[C@@](C)(O)CC3)s2)cn1 (single isomer, unassigned) [Example 220, 2′-chloro-5′-(difluoromethoxy)-N-(5-(((1s,4s)-4-hydroxy-4-methylcyclohexyl)oxy)-1,3,4-thiadiazol-2-yl)-6-methyl-(4,4′-bipyridine)-3-carboxamide] | ≤ 200 nM
COc1cnc(Cl)cc1-c1cc(C)ncc1C(=O)Nc1nnc(O[C@H]2CC[C@@H]([C@H](C)O)CC2)s1 (single isomer, unassigned) [Example 213] | ≤ 200 nM
COc1cnc(Cl)cc1-c1cc(C)ncc1C(=O)Nc1nnc(O[C@H]2CC[C@@H](C(C)(C)O)CC2)s1 [Example 175, 2′-chloro-N-(5-(((1s,4s)-4-(2-hydroxypropan-2-yl)cyclohexyl)oxy)-1,3,4-thiadiazol-2-yl)-5′-methoxy-6-methyl-(4,4′-bipyridine)-3-carboxamide] | ≤ 200 nM
COc1cnc(Cl)c(F)c1-c1cc(C)ncc1C(=O)Nc1nnc(O[C@H]2CCO[C@@H]2C)s1 (single isomer, unassigned) [Example 165] | ≤ 200 nM
COc1cnc(Cl)cc1-c1cc(C)ncc1C(=O)Nc1nnc(O[C@H]2CC[C@H](C(C)(C)O)CC2)s1 [Example 187, 2′-chloro-N-(5-(((1r,4r)-4-(2-hydroxypropan-2-yl)cyclohexyl)oxy)-1,3,4-thiadiazol-2-yl)-5′-methoxy-6-methyl-(4,4′-bipyridine)-3-carboxamide] | ≤ 200 nM

Same assay, conditions: Table 5; values given as bound; Pol theta (1-899) 5 nM, ATP, dT50 ssDNA

SMILES | IC50
COc1nnc(NC(=O)c2cc(CO)ncc2-c2c(F)cccc2OC)s1 [Example 121, 5-(2-fluoro-6-methoxyphenyl)-2-(hydroxymethyl)-N-(5-methoxy-1,3,4-thiadiazol-2-yl)isonicotinamide] | > 10000 nM
